Where two headings read alike, the source gives them in different places.
Assays:
[1] = molecular target: Human carbonic anhydrase II (hCA-II) (Homo sapiens (Human), UniProt P00918); assay: Human carbonic anhydrase-II inhibition assay (absorbance, 4-nitrophenyl acetate substrate); format: biochemical
Experimental: Human Carbonic Anhydrase-II Inhibition Assay
Human carbonic anhydrase II (hCA-II) inhibition was measured by an absorbance method using 4-nitrophenyl acetate (4-NPA) as its substrate. 4-NPA can be catalyzed by active hCA II via a zinc-hydroxide mechanism. The nitrophenolate in the products can be ionized to generate a bright yellow anion with high absorbance at 348 to 400 nm, as reported in the literature (Armstrong et al., J. Biol. Chem. 1966, 241, 5137-5149). OD340 nm was chosen for detecting hCA II substrate conversion.
(§1) Assay working solutions were made as follows:
Assay buffer: 50 mM MOPS, 33 mM Na2SO4, 1 mM EDTA, 0.5 mg/ml BSA, pH 7.5;
Enzyme solution: hCA-II (human, full length) stock solution (1.0 mg/mL in 20 mM HEPES, 50 mM NaCl, pH 7.4), diluted to 2133× final concentration in assay buffer;
4-NPA substrate solution: 4-NPA substrate stock solution (250 mM in DMSO, stored at −20° C.), diluted to 50× final concentration in deionized water.
Test compounds (10 mM stock in DMSO, 100 μL) were obtained in […] sample plates (Corning Costar #3655) and diluted to 0.5 mM. Column-wise serial dilutions were made by transferring 20 μL compound solutions to the next column, from column 3 up to 22. After this, 1.2 μL were transferred to 384 well assay plates (Corning Costar #3701). Then 30 μL of 16 nM hCA II solution was added (8 nM final concentration), mixed five times. 30 μL of 4-NPA substrate solution was added (2.5 mM final concentration), mixed five times. Absorbance at 340 nm was then measured immediately as time zero. The assay plates were incubated at room temperature for 1 hour and then measured as time 1 hour (Perkin Elmer EnVision 2103; Filter: Photometric 340; Light intensity 60%; Number of flashes: 10). IC50 values and Ki values were calculated from these readouts.

human ATX = human ATX (Homo sapiens (Human), UniProt Q13822); assay: Human ATX enzyme inhibition assay (fluorescence quenching, MR121 substrate); format: biochemical
Experimental: Human ATX Enzyme Inhibition Assay
ATX inhibition was measured by a fluorescence quenching assay using a specifically labeled substrate analogue (MR121 substrate). To obtain this MR121 substrate, BOC and TBS protected 6-amino-hexanoic acid (R)-3-({2-[3-(2-{2-[2-(2-amino-ethoxy)-ethoxy]-ethoxy}-ethoxy)-propionylamino]-ethoxy}-hydroxy-phosphoryloxy)-2-hydroxy-propyl ester (Ferguson et al., Org Lett 2006, 8 (10), 2023) was labeled with MR121 fluorophore (CAS 185308-24-1, 1-(3-carboxypropyl)-11-ethyl-1,2,3,4,8,9,10,11-octahydro-dipyrido[3,2-b:2′,3′-i]phenoxazin-13-ium) on the free amine of the ethanolamine side and then, after deprotection, subsequently with tryptophan on the side of the aminohexanoic acid.
as §1
Assay buffer (50 mM Tris-HCl, 140 mM NaCl, 5 mM KCl, 1 mM CaCl2, 1 mM MgCl2, 0.01% Triton-X-100, pH 8.0;
ATX solution: ATX (human His-tagged) stock solution (1.08 mg/mL in 20 mM bicine, pH 8.5, 0.15 M NaCl, 10% glycerol, 0.3% CHAPS, 0.02% NaN3), diluted to 1.4-2.5× final concentration in assay buffer;
MR121 substrate solution: MR121 substrate stock solution (800 μM MR121 substrate in DMSO), diluted to 2-5× final concentration in assay buffer.
Test compounds (10 mM stock in DMSO, 8 μL) were obtained in 384 well sample plates (Corning Costar #3655) and diluted with 8 μL DMSO. Row-wise serial dilutions were made by transferring 8 μL cpd solution to the next row up to row O. The compound and control solutions were mixed five times and 2 μL were transferred to 384 well assay plates (Corning Costar #3702). Then, 15 μL of 41.7 nM ATX solution was added (30 nM final concentration), mixed five times and then incubated for 15 minutes at 30° C. 10 μL of MR121 substrate solution was added (1 μM final concentration), mixed 30 times and then incubated for 15 minutes at 30° C.

[2] = hCA II 8 nM, 4-NPA 2.5 mM, absorbance 340 nm, room temperature 1 hour, read-out: CA-II IC50
[3] = human His-tagged ATX 30 nM, MR121 substrate 1 μM, 30° C., read-out: ATX IC50

SMILES	IC50 [1]	IC50 (human ATX)	IC50 [1, 2]	IC50 (human ATX; [3])
CC(C)(C)C(=O)Nc1cc(C(F)(F)F)cnc1COC(=O)N1CC2=C(C1)CN(C(=O)c1ncc(S(N)(=O)=O)cc1F)C2 [Example 1.32, [3-(2,2-dimethylpropanoylamino)-5-(trifluoromethyl)pyridin-2-yl]methyl 2-(3-fluoro-5-sulfamoylpyridine-2-carbonyl)-1,3,4,6-tetrahydropyrrolo[3,4-c]pyrrole-5-carboxylate]	2.5 nM	5 nM	–	–
NS(=O)(=O)c1ccc(C(=O)N2CC3=C(CN(C(=O)/C=C/c4ccc(OC(F)(F)F)cc4)C3)C2)c(F)c1 [Example 3.00, 3-Fluoro-4-[2-[(E)-3-[4-(trifluoromethoxy)phenyl]prop-2-enoyl]-1,3,4,6-tetrahydropyrrolo[3,4-c]pyrrole-5-carbonyl]benzenesulfonamide]	–	–	9 nM	5 nM
NS(=O)(=O)c1ccc(C(=O)N2CC3=C(CN(C(=O)/C=C/c4ccc(OC(F)(F)F)cc4)C3)C2)nc1 [Example 3.03, 6-[2-[(E)-3-[4-(trifluoromethoxy)phenyl]prop-2-enoyl]-1,3,4,6-tetrahydropyrrolo[3,4-c]pyrrole-5-carbonyl]pyridine-3-sulfonamide]	17 nM	4 nM	–	–
CC(C)(C)C(=O)Nc1cc(Cl)cnc1COC(=O)N1CC2=C(C1)CN(C(=O)c1cc(F)c(S(N)(=O)=O)cc1F)C2 [Example 1.16, [5-chloro-3-(2,2-dimethylpropanoylamino)pyridin-2-yl]methyl 2-(2,5-difluoro-4-sulfamoylbenzoyl)-1,3,4,6-tetrahydropyrrolo[3,4-c]pyrrole-5-carboxylate]	–	–	10.2 nM	9 nM
Cc1nnn(Cc2cc(Cl)ccc2CCC(=O)N2CC3=C(C2)CN(C(=O)c2ccc(S(N)(=O)=O)cc2F)C3)n1 [Example 3.07, 4-[2-[3-[4-chloro-2-[(5-methyltetrazol-2-yl)methyl]phenyl]propanoyl]-1,3,4,6-tetrahydropyrrolo[3,4-c]pyrrole-5-carbonyl]-3-fluorobenzenesulfonamide]	5 nM	4 nM	–	–
Cc1cn(Cc2cc(C(F)(F)F)ccc2CCC(=O)N2CC3=C(C2)CN(C(=O)c2ccc(S(N)(=O)=O)cc2F)C3)nn1 [Example 3.09, 3-fluoro-4-[2-[3-[2-[(4-methyltriazol-1-yl)methyl]-4-(trifluoromethyl)phenyl]propanoyl]-1,3,4,6-tetrahydropyrrolo[3,4-c]pyrrole-5-carbonyl]benzenesulfonamide]	11 nM	1 nM	–	–
Cc1nnn(Cc2cc(C(F)(F)F)ccc2CCC(=O)N2CC3=C(C2)CN(C(=O)c2ncc(S(N)(=O)=O)cc2F)C3)n1 [Example 4.00, 5-fluoro-6-[2-[3-[2-[(5-methyltetrazol-2-yl)methyl]-4-(trifluoromethyl)phenyl]propanoyl]-1,3,4,6-tetrahydropyrrolo[3,4-c]pyrrole-5-carbonyl]pyridine-3-sulfonamide]	–	–	3.8 nM	10 nM
NS(=O)(=O)c1ccc(C(=O)N2CC3=C(CN(C(=O)OCc4ccc(OC(F)(F)F)cc4)C3)C2)cc1 [Example 1.06, 4-(trifluoromethoxy)benzyl 5-(4-sulfamoylbenzoyl)-3,4,5,6-tetrahydropyrrolo[3,4-c]pyrrole-2(1H)-carboxylate]	10 nM	5 nM	–	–
NS(=O)(=O)c1ccc(C(=O)N2CC3=C(CN(C(=O)c4cc(OCC5CCOCC5)nc(C5CC5)c4)C3)C2)c(F)c1 [Example 1.08, 4-[5-[2-cyclopropyl-6-(oxan-4-ylmethoxy)pyridine-4-carbonyl]-1,3,4,6-tetrahydropyrrolo[3,4-c]pyrrole-2-carbonyl]-3-fluorobenzenesulfonamide]	–	–	6 nM	8 nM
CC(C)(C)C(=O)Nc1cccnc1COC(=O)N1CC2=C(C1)CN(C(=O)c1ccc(S(N)(=O)=O)cc1F)C2 [Example 1.19, [3-(2,2-dimethylpropanoylamino)pyridin-2-yl]methyl 2-(2-fluoro-4-sulfamoylbenzoyl)-1,3,4,6-tetrahydropyrrolo[3,4-c]pyrrole-5-carboxylate]	–	–	4 nM	10 nM
NS(=O)(=O)c1ccc(C(=O)N2CC3=C(CN(C(=O)CCc4ccc(OC(F)(F)F)cc4)C3)C2)c(F)c1 [Example 3.02, 3-fluoro-4-[2-[3-[4-(trifluoromethoxy)phenyl]propanoyl]-1,3,4,6-tetrahydropyrrolo[3,4-c]pyrrole-5-carbonyl]benzenesulfonamide]	5 nM	6 nM	–	–
CC(C)(C)C(=O)Nc1cc(C(F)(F)F)cnc1COC(=O)N1CC2=C(C1)CN(C(=O)c1ccc(S(N)(=O)=O)c(F)c1F)C2 [Example 1.09, [3-(2,2-dimethylpropanoylamino)-5-(trifluoromethyl)pyridin-2-yl]methyl 2-(2,3-difluoro-4-sulfamoylbenzoyl)-1,3,4,6-tetrahydropyrrolo[3,4-c]pyrrole-5-carboxylate]	–	–	10 nM	27 nM
CC(C)(C)C(=O)Nc1ccc(Cl)nc1COC(=O)N1CC2=C(C1)CN(C(=O)c1ccc(S(N)(=O)=O)c(F)c1)C2 [Example 1.21, [6-chloro-3-(2,2-dimethylpropanoylamino)pyridin-2-yl]methyl 2-(3-fluoro-4-sulfamoylbenzoyl)-1,3,4,6-tetrahydropyrrolo[3,4-c]pyrrole-5-carboxylate]	–	–	3 nM	12 nM
Cc1ccc(NC(=O)C(C)(C)C)c(COC(=O)N2CC3=C(C2)CN(C(=O)c2ccc(S(N)(=O)=O)cc2F)C3)n1 [Example 1.17, [3-(2,2-dimethylpropanoylamino)-6-methylpyridin-2-yl]methyl 2-(2-fluoro-4-sulfamoylbenzoyl)-1,3,4,6-tetrahydropyrrolo[3,4-c]pyrrole-5-carboxylate]	–	–	4 nM	11 nM
NS(=O)(=O)c1ccc(C(=O)N2CC3=C(CN(C(=O)COc4ccc(OC(F)(F)F)cc4)C3)C2)c(F)c1 [Example 3.05, 3-fluoro-4-[2-[2-[4-(trifluoromethoxy)phenoxy]acetyl]-1,3,4,6-tetrahydropyrrolo[3,4-c]pyrrole-5-carbonyl]benzenesulfonamide]	9 nM	4 nM	–	–
CC(C)(C)C(=O)Nc1cc(C(F)(F)F)cnc1COC(=O)N1CC2=C(C1)CN(S(=O)(=O)c1ccc(S(N)(=O)=O)cc1F)C2 [Example 5.00, [3-(2,2-dimethylpropanoylamino)-5-(trifluoromethyl)pyridin-2-yl]methyl 5-(2-fluoro-4-sulfamoylphenyl)sulfonyl-1,3,4,6-tetrahydropyrrolo[3,4-c]pyrrole-2-carboxylate]	–	–	17.6 nM	7 nM
CC(C)(C)C(=O)Nc1cc(Cl)c(Cl)nc1COC(=O)N1CC2=C(C1)CN(C(=O)c1ccc(S(N)(=O)=O)cc1F)C2 [Example 1.29, [5,6-dichloro-3-(2,2-dimethylpropanoylamino)pyridin-2-yl]methyl 2-(2-fluoro-4-sulfamoylbenzoyl)-1,3,4,6-tetrahydropyrrolo[3,4-c]pyrrole-5-carboxylate]	1.2 nM	11 nM	–	–

Reference: patent US10647719B2, “Bicyclic compounds as dual ATX/CA inhibitors” (Hoffmann-La Roche Inc., priority 2015, dated 2020)
